Data set [1] concerns Mia-PaCa2 (human pancreas cancer cells). Kind of data set: Anti-proliferative activity on Mia-Paca2 cell line (WST1 colorimetric test). The class given is cell-based. Conditions: MIA PaCa-2, 96 h, 96 hours treatment, read-out: IC50 on proliferation of the Mia-Paca2 cell line. As to the method: (§1) By way of an example, the effect of treating two human cell lines Mia-Paca2 and DU145 with the compounds of the examples described hereinbefore will be studied. The cell lines DU145 (human prostate cancer cells) and Mia-PaCa2 (human pancreas cancer cells) were obtained from the American Tissue Culture Collection (Rockville, Md., USA). A 96-well plate was inoculated on day 0 with cells placed in 80 μl of Dulbecco's modified Eagle's medium (Gibco-Brl, Cergy-Pontoise, France) with 10% heat-inactivated foetal calf serum (Gibco-Brl, Cergy-Pontoise, France), 50000 units/1 of penicillin and 50 mg/l of streptomycin (Gibco-Brl, Cergy-Pontoise, France), and 2 mM of glutamine (Gibco-Brl, Cergy-Pontoise, France). The cells were treated on day 1 with increasing concentrations of each test compound up to 10 μM for 96 hours. At the end of this period, cell proliferation is quantified by means of a colorimetric test based on cleavage of the tetrazolium salt WST1 by the mitochondrial dehydrogenases in the viable cells, resulting in formation of formazan (Boehringer Mannheim, Meylan, France). These tests are performed in duplicate with 8 determinations per concentration tested. For each compound to be tested, the values within the linear part of the sigmoid curve were subjected to linear regression analysis and used to estimate the IC50 inhibitory concentration. The products are solubilised in dimethylsulfoxide (DMSO) at a concentration of 10^−2 M and used in culture with a final DMSO concentration of 0.1%.
(Formazan colour is commonly taken as a measure of viable cells.)

Data set [2] concerns DU145 (human prostate cancer cells). Kind of data set: Anti-proliferative activity on DU-145 cell line (WST1 colorimetric test). The class given is cell-based. Conditions: DU-145, 96 h, 96 hours treatment, read-out: IC50 on the proliferation of the DU-145 cell line. As to the method:
as §1

Data set [3] deals with T1, purified recombinant Cdc25-C enzyme (MBP-Cdc25C protein) (Homo sapiens, UniProt P30307).
T1 construct: made in house
T1 sequence (P30307 1-473): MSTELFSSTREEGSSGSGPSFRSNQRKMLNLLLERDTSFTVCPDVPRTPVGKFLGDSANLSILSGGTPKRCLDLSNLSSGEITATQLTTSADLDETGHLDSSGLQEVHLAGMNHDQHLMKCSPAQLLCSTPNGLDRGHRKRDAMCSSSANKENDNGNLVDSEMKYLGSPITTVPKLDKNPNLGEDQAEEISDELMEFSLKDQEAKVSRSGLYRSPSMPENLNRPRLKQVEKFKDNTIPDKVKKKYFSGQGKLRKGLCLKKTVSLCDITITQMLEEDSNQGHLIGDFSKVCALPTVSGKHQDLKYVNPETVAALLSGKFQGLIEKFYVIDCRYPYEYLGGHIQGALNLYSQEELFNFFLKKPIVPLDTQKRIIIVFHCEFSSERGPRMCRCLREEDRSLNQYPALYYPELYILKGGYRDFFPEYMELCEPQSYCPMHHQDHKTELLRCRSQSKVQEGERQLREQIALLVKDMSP
In words: Phosphatase activity of the purified recombinant Cdc25C enzyme (OMFP dephosphorylation, fluorescence). Particulars: OMFP 500 μM, 4 hours at 30° C. The format is biochemical. The method, boiled down:
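MBP-Cdc25C fusion protein in 50 mM Tris-HCl pH 8.2, 50 mM NaCl, 1 mM DTT, 20% glycerol; reaction started with 500 μM OMFP (final). Compounds tested at decreasing concentrations from 40 μM; 4 h at 30 °C, OMF fluorescence read at 475 nm. IC50 from three independent experiments by linear regression over the linear part of the sigmoid.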

For `CN(CCCNC(=O)Nc1ccc(Cl)c(C(F)(F)F)c1)CCCNc1cc(N2CCCC2)nc(N2CCCC2)n1` [Example 21, N-[4-chloro-3-(trifluoromethyl)phenyl]-N′-{3-[{3-[(2,6-dipyrrolidin-1-ylpyrimidin-4-yl)amino]propyl}(methyl)amino]propyl}urea], the IC50 in data set [1], in data set [2] and in data set [3] was at most 5 µM throughout.
Regarding `CN(CCNC(=S)Nc1cccnc1)CCNc1cc(N2CCCC2)nc(N2CCCC2)n1` [Example 26, N-{2-[{2-[(2,6-dipyrrolidin-1-ylpyrimidin-4-yl)amino]ethyl}(methyl)amino]ethyl}-N′-pyridin-3-ylthiourea], the melting point lay in the range of 107 to 109 °C. For the same compound, the IC50 in data set [1] was at most 5 µM. Also, the IC50 in data set [3] was at most 1 µM.
`CSc1ccc(NC(=S)NCCN(C)CCNc2cc(N3CCCC3)nc(N3CCCC3)n2)cc1` [Example 51, N-{2-[{2-[(2,6-dipyrrolidin-1-ylpyrimidin-4-yl)amino]ethyl}(methyl)amino]ethyl}-N′-[4-(methylthio)phenyl]thiourea]: the melting point lay within 67 to 69 °C. In addition, the IC50 in data set [2] is at most 5 µM. Besides, the IC50 in data set [3] was at most 1 µM.
Regarding `CN(C)CCN(C)c1cc(NCCN(C)CCNC(=S)Nc2ccc(Cl)cc2)nc(N(C)CCN(C)C)n1` [Example 64, N-{2-[[2-({2,6-bis[[2-(dimethylamino)ethyl](methyl)amino]pyrimidin-4-yl}amino)ethyl](methyl)amino]ethyl}-N′-(4-chlorophenyl)thiourea], the IC50 in data set [1] and in data set [3] was at most 5 µM in each case.
In turn, `CN(CCNC(=S)Nc1ccc(Cl)cc1)CCNc1cc(N2CCCCC2)nc(N2CCCCC2)n1` [Example 69, N-(4-chlorophenyl)-N′-{2-[{2-[(2,6-dipiperidin-1-ylpyrimidin-4-yl)amino]ethyl}(methyl)amino]ethyl}thiourea] had a melting point of 76 to 78 °C. Moreover, in data set [2], the IC50 was at most 5 µM. For the same compound, in data set [3], the IC50 was at most 1 µM.
In turn, `CCNc1cc(NCCN(C)CCNC(=S)Nc2ccc(Cl)cc2)nc(NCC)n1` [Example 79, N-{2-[(2-{[2,6-bis(ethylamino)pyrimidin-4-yl]amino}ethyl)(methyl)amino]ethyl}-N′-(4-chlorophenyl)thiourea] gave a melting point of 142 to 144 °C. Moreover, the IC50 in data set [1] is at most 5 µM.
As for `CC(Oc1ccccc1)C(=O)NCCN(C)CCNc1cc(N2CCCC2)nc(N2CCCC2)n1` (stereo not shown) [Example 84, N-{2-[{2-[(2,6-dipyrrolidin-1-ylpyrimidin-4-yl)amino]ethyl}(methyl)amino]ethyl}-2-phenoxypropanamide], the melting point was 110 to 112 °C. Also, the IC50 in data set [1] was at most 5 µM. Moreover, in data set [3], the IC50 is at most 5 µM.
Take `CN(CCNC(=O)c1cccc2c1-c1ccccc1C2=O)CCNc1cc(N2CCCC2)nc(N2CCCC2)n1` [Example 85, N-{2-[{2-[(2,6-dipyrrolidin-1-ylpyrimidin-4-yl)amino]ethyl}(methyl)amino]ethyl}-9-oxo-9H-fluorene-4-carboxamide]: the melting point fell in the range of 139 to 140 °C. For the same compound, the IC50 in data set [1] was at most 5 µM. For the same compound, the IC50 in data set [3] is at most 5 µM.
`CN(CCNC(=O)C1CCN(c2nccc(C(F)(F)F)n2)CC1)CCNc1cc(N2CCCC2)nc(N2CCCC2)n1` [Example 86, N-{2-[{2-[(2,6-dipyrrolidin-1-ylpyrimidin-4-yl)amino]ethyl}(methyl)amino]ethyl}-1-[4-(trifluoromethyl)pyrimidin-2-yl]piperidine-4-carboxamide]: the melting point was 171 to 173 °C. Besides, the IC50 in data set [1] was at most 5 µM. The IC50 in data set [3] is at most 5 µM.
Compound `CN(CCNc1cc(N2CCCC2)nc(N2CCCC2)n1)CCNS(=O)(=O)c1ccc([N+](=O)[O-])cc1` [Example 87, N-{2-[{2-[(2,6-dipyrrolidin-1-ylpyrimidin-4-yl)amino]ethyl}(methyl)amino]ethyl}-4-nitrobenzenesulfonamide] displayed a melting point of 144 to 145 °C. Moreover, the IC50 in data set [1] was at most 5 µM. For the same compound, the IC50 in data set [3] is at most 1 µM.

As usually defined, the melting point is the temperature, or range, at which the solid turns liquid.

The values above are taken from patent publication US20100137275A1 (IPSEN PHARMA S.A.S., priority 2007, published 2010).
